Measured values published in patent US8575351B2, “Active metabolite of a thrombin receptor antagonist” (Merck Sharp & Dohme Corp., priority 2009, dated 2013).
Entries after “also recorded” stand apart in the source; their conditions may differ.

What was measured:
[1] = Rising single dose study: LC-MS profiling of SCH 530348 metabolites in plasma and urine; type: in vivo, human; conditions: for Amount detected in urine (LC-MS): 0-24 hr urine after single 40-mg SCH 530348, humans; for Matrix in which metabolite was detected: single oral 20 and 40 mg SCH 530348, healthy male volunteers, plasma and urine extracts; for Amount detected in plasma (LC-MS): first 6-hr period after single 20- or 40-mg SCH 530348, humans
Text: Phase I clinical studies were designed to evaluate the pharmacokinetics of SCH 530348 in healthy subjects after rising single and multiple doses. The studies included a randomized, evaluator-blind, placebo-controlled, rising single dose (“RSD”) study and a rising multiple dose (“RMD”) study of orally administered SCH 530348 in healthy subjects.
In the single-dose study, 50 healthy males were enrolled into 6 sequential cohorts and randomized to receive in ascending dose manner placebo (n=2-3/group) or oral SCH 530348 (0.25, 1, 5, 10, 20 and 40 mg; n=5-6/group). The objective of this study was to qualitatively assess SCH 530348 metabolites in selected plasma and urine samples following administration of a single oral dose (20 mg or 40 mg, Groups 5 and 6, respectively) of SCH 530348 to healthy male human subjects. Plasma samples from subjects receiving 20 mg and 40 mg of SCH 530348 or placebo were profiled using liquid chromatography-mass spectrometry (“LC-MS”). Only urine samples from 40 mg dose group were profiled. Corresponding plasma and urine LC-MS profiles from the drug- and placebo-dosed subjects were compared to distinguish the drug-derived components from the endogenous material. Next, metabolites were further characterized using liquid chromatography-tandem mass spectrometry (“LC-MS/MS”) methods. Pathways involved in metabolism of SCH 530348 in humans were proposed.
The samples were analyzed using LC-MS System B comprised of TSQ Quantum (Thermo Electron Corp., San Jose, Calif.) operating in a positive electrospray ionization mode, HPLC module Alliance 2695 (Waters, Corp., Milford, Mass.), and flow scintillation analyzer 500TR Series (PerkinElmer Life and Analytical Sciences, Inc., Boston, Mass.).
The clinical phase of the study was conducted at Pharma Bio-Research Group B.V. (Zuidlaren, The Netherlands). Selected plasma and urine samples from Group 5 (20 mg dose and placebo) and Group 6 (40 mg dose and placebo) were shipped and received frozen at Schering-Plough Research Institute (“SPRI”). The samples were stored at −20±10° C. until processing and analysis for metabolites.
Plasma samples from subjects dosed with SCH 530348 or with placebo, in the […], were pooled as summarized in the following table.
To determine extraction efficiency, all available pre-dose plasma from subjects dosed with SCH 530348 (40-mg dose group) was also pooled across subjects. A 2.0 mL aliquot of plasma was spiked with 10 μL of a system suitability mixture (“SSM”) [SCH 530348 and ^14C-SCH 530348 (combined concentration 40 ng/μL, 5000 DPM/μL), SCH 540679 (40 ng/μL), and SCH 609528 (40 ng/μL)] and processed by solvent extraction with protein precipitation. After extracting once with three volumes of acetonitrile, the supernatant was concentrated and reconstituted in dimethylsulfoxide (˜50% of final sample volume) followed by the addition of 1/1 mixture of mobile phases A and B. Following centrifugation, a sample aliquot was analyzed by liquid chromatography-mass spectrometry/flow scintillation analysis (LC-MS/FSA).
A similar procedure was used to process all plasma samples from the drug- or placebo-administered subjects (20- and 40-mg dose groups), and an aliquot of each reconstituted extract was injected for LC-MS analysis. Targeted LC-MS/MS analysis to confirm the presence of metabolites and characterize their structures was also performed.
Urine samples collected during the first 24-hr period post 40-mg dose were pooled across all SCH 530348-dosed subjects (n=5) and across placebo subjects (n=3). Five milliliters of urine (20% of available urine) were pooled from each subject.
To determine the extraction efficiency, 10% of available pre-dose urine from subjects to be dosed with SCH 530348 was also pooled across the subjects. An aliquot (ca. 3.15 mL) was spiked with 15 μL of SSM and extracted by solid-phase extraction. The urine sample was loaded onto a conditioned Sep-Pak Vac tC18 (Waters Corp.) cartridge and washed with water. […]

[2] = Animal study, M20 exposure multiples in monkeys; type: in vivo; conditions: single dose at 0.5 mg/kg
Procedure: (§1) Exposure multiples exceeded 10 in monkeys after a single dose at 0.5 mg/kg, 25 in mice after a single dose at 75 mg/kg, and 50 in female rabbits on day 7 after multiple daily doses at 20 mg/kg.

[3] = Animal study, M20 formation and exposure multiples in rabbits; type: in vivo
Procedure: as §1

thrombin receptor = molecular target: T1, thrombin receptor (Homo sapiens, UniProt P25116); assay: Calcium transient assay (human coronary artery smooth muscle cells, TK-induced calcium efflux); type: cell-based
T1 construct: human coronary artery smooth muscle cell assay measuring effects on thrombin receptor agonist peptide; endogenous in cells; host or cells: human coronary artery smooth muscle cells
T1 sequence (P25116 22-425): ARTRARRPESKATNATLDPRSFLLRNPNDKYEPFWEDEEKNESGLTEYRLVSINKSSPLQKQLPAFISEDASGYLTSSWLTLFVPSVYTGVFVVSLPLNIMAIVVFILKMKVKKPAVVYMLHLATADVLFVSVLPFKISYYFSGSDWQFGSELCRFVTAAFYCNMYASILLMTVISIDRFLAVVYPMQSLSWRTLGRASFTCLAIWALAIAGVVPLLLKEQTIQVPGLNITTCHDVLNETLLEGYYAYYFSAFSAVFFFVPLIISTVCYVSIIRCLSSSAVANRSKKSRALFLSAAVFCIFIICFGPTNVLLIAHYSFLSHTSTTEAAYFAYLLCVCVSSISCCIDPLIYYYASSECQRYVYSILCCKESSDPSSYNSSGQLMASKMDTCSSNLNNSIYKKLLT
Procedure: Upon analysis, it was determined that, unlike the other detected metabolites, the concentration of the M20 metabolite in the blood was sufficient for it to be considered a “major metabolite.” That finding triggered an evaluation of its activity. In order to assess activity, SCH 530348 and the M20 metabolite were subjected to a human coronary artery smooth muscle cell assay measuring effects on thrombin receptor agonist peptide TFLLRNPNDK-NH2 (“TK”) on calcium efflux (“the calcium transient assay”).

[4] = Animal study, M20 exposure multiples in mice; type: in vivo; conditions: single dose at 75 mg/kg
Procedure: as §1

[5] = Blood levels in placebo-controlled safety study of SCH 530348 in non-urgent PCI subjects; type: in vivo, human
Text: In a multi-center, randomized, double-blind, placebo-controlled study to evaluate the safety of SCH 530348 in subjects undergoing non-urgent percutaneous coronary intervention (“PCI”), blood samples were taken on days 15, 31, 60, 75, and 91. A steady state blood level concentration of SCH 530348 was reached by day 31. By day 31, the M20 metabolite was present in the blood at levels of 30-40% of those of the parent (SCH 530348).

| Amount detected in urine (LC-MS) [1] | Matrix in which metabolite was detected [1] | Amount detected in plasma (LC-MS) [1] | Exposure multiples [2] | Exposure multiples ([3]; female rabbits, day 7 after multiple daily doses at 20 mg/kg) | Formation of metabolite in animals ([3]; rabbits, after both single and multiple doses) | IC50 (thrombin receptor; agonist peptide TFLLRNPNDK-NH2 (TK)) | Exposure multiples [4] | SMILES | Blood level as % of that of the parent (SCH 530348) ([5]; by day 31) | IC50 (thrombin receptor; agonist peptide […]-NH2 (TK)) | Time to steady state blood level concentration ([5]; blood samples on days 15, 31, 60, 75, 91) |
| --- | --- | --- | --- | --- | --- | --- | --- | --- | --- | --- | --- |
| minor to trace levels | Urine | – | – | – | – | – | – | C[C@H]1OC(=O)[C@@H]2C[C@@H]3C[C@H](NC(=O)OCC(=O)O)CC[C@H]3[C@H](/C=C/c3ccc(-c4cccc(F)c4)cn3)[C@H]12 [Metabolite M16, [[[[(1R,3aR,4aR,6R,8aR,9S,9aS)-9-[(E)-2-[5-(3-fluorophenyl)-2-pyridinyl]ethenyl]dodecahydro-1-methyl-3-oxonaphtho[2,3-c]furan-6-yl]amino]carbonyl]oxy]acetic acid] | – | – | – |
| minor to trace levels | Plasma,; also recorded: Urine | Trace amounts | – | – | – | – | – | C[C@H]1OC(=O)[C@@H]2C[C@@H]3C[C@H](N)CC[C@H]3[C@H](/C=C/c3ccc(-c4cccc(F)c4)cn3)[C@H]12 [Metabolite M19, (3R,3aS,4S,4aR,7R,8aR,9aR)-7-amino-4-[(E)-2-[5-(3-fluorophenyl)-2-pyridinyl]ethenyl]-decahydro-3-methylnaphtho[2,3-c]furan-1(3H)-one] | – | – | – |
| – | Plasma | Trace amounts | exceeded 10 | > 50 | formed | 3.4 nM | > 25 | C[C@H]1OC(=O)[C@@H]2C[C@@H]3C[C@H](NC(=O)OCCO)CC[C@H]3[C@H](/C=C/c3ccc(-c4cccc(F)c4)cn3)[C@H]12 [Metabolite M20, 2-hydroxyethyl(1R,3aR,4aR,6R,9S,9aS)-9-{(E)-2(5-(3-fluorophenyl)pyridine-2-yl)vinvl}-1-methyl-3-oxododecahydronaphtho[2,3-c]furan-6ylcarbamate] | 30-40% | – | – |

| SMILES | Amount detected in urine (LC-MS) [1] | Matrix in which metabolite was detected [1] | Amount detected in plasma (LC-MS) [1] | Exposure multiples [2] | Exposure multiples ([3]; female rabbits, day 7 after multiple daily doses at 20 mg/kg) | Formation of metabolite in animals ([3]; rabbits, after both single and multiple doses) | IC50 (thrombin receptor; agonist peptide TFLLRNPNDK-NH2 (TK)) | Exposure multiples [4] | Blood level as % of that of the parent (SCH 530348) ([5]; by day 31) | IC50 (thrombin receptor; agonist peptide […]-NH2 (TK)) | Time to steady state blood level concentration ([5]; blood samples on days 15, 31, 60, 75, 91) |
| --- | --- | --- | --- | --- | --- | --- | --- | --- | --- | --- | --- |
| CCOC(=O)N[C@@H]1CC[C@@H]2[C@@H](C1)C[C@H]1C(=O)O[C@H](C)[C@H]1[C@H]2/C=C/c1ccc(-c2cccc(F)c2)cn1 [SCH 530348, Ethyl[(1R,3aR,4aR,6R,8aR,9S,9aS)-9-[(E)-2-[5-(3-fluorophenyl)-2-pyridinyl]ethenyl]dodecahydro-1-methyl-3-oxonaphtho[2,3-c]furan-6-yl]carbamate, reference compound] | not detected | – | primary circulating component | – | – | – | – | – | – | 4.5 nM | ≤ 31 days |
